Consider seven compounds from US20240058422A1, “GLUCAGON-LIKE PEPTIDE-1 RECEPTOR ANTAGONISTS” (INDIANA UNIVERSITY RESEARCH AND TECHNOLOGY CORPORATION, priority 2022, published 2024).

The target of one series is GLP-1R (Homo sapiens, UniProt P43220). The series is described as follows: GLP-1 receptor-mediated cAMP induction, luciferase reporter gene antagonism assay. The format is cell-based. Also noted: host or cells: HEK 293. The note with it: antagonism of 0.05 nM GLP-1, HEK 293 cells. As to the method:
GLP-1 Receptor-Mediated cAMP Induction The ability of peptides to stimulate or block cAMP induction at the GLP-1 receptor was examined by a luciferase-based reporter gene assay. Cotransfection of HEK 293 cells with the human GLP-1 receptor (Open Biosystems) and a cAMPinducible (cAMPresponsive element) luciferase gene constituted the cellular construct where receptor activation could be measured. Bioassays were performed by first serum depriving the cells for 16 h in 0.25% bovine growth serum (HyClone)-supplemented Dulbecco's modified Eagle's medium (Invitrogen) and then adding serial dilutions of the peptides over the appropriate concentration ranges in 96-well poly-D-lysine-coated plates (BD Biosciences). For antagonism assays, a constant concentration of GLP-1 (0.05 nM) was added to the assay plate after the diluted peptides. Incubation continued for 5 h at 37° C., 5% CO2 and was followed by the addition of an equivalent volume (100 μL) of LucLite luminescence substrate reagent (Perkin-Elmer). MicroBeta 1450 liquid scintillation counting (Perkin-Elmer) quantified the luminescence signal in counts per second (cps) after shaking the plate at 600 rpm for 3 min. Data was plotted using Origin software (OriginLab) and the effective concentration 50 (EC50) or inhibitory concentration 50 (IC50) was determined by sigmoidal fitting. Potency was determined by comparative analysis of relative EC50 or IC50 values. Each experiment was repeated at least three times with each sample assayed in duplicate.

Setting [1] is: 80 mM ammonium bicarbonate buffer, pH 7.7.
Where [2] appears, read: PBS, pH 7.7, Solubility [mg/mL] PBS pH7.7, Table 4, PBS pH7.7.
Setting [3] is: Table 4, Aib variants of 9-40am Jant4 K40[C16], read-out: Bioactivity IC50.
[4] abbreviates: 80 mM ammonium bicarbonate buffer, pH 7.7, Solubility [mg/mL] 80 mM/AmBicarb pH7.7, Table 5, 80 mM AmBicarb pH7.7.
[5] abbreviates: Table 5, d-AA variants of 9-40am Jant4 K40[C16], read-out: Bioactivity KC50.
The mark [6] stands for this setting: 80 mM ammonium bicarbonate buffer, pH 7.7, Solubility [mg/mL] 80 mM AmBicarb pH7.7, Table 2, 80 mM AmBicarb pH7.7.

Structures are written as SMILES. pIC50: −log10 of the molar value. Values after ≈ are worked out from the molar mass of the structure shown. Like-named read-outs stand apart in the source and are kept apart here. Starred links: 1 amine or outer side, 2 acyl side, 3 side chain; linkers in the order of their positions; H or OH if unused. Non-standard residues stand in square brackets, D forms with d. Residues, ends and D or L forms follow the SMILES beside them. Groups on a side chain read outwards from the residue. *: point of attachment. γGlu = O=C(O)[C@H](CCC(=O)[*:2])N[*:1]; Palmitoyl = CCCCCCCCCCCCCCCC(=O)*; AEEA = NCCOCCOCC(=O)O; Aib = CC(C)(N)C(=O)O

Sequence of GLP-1R (P43220 24-463): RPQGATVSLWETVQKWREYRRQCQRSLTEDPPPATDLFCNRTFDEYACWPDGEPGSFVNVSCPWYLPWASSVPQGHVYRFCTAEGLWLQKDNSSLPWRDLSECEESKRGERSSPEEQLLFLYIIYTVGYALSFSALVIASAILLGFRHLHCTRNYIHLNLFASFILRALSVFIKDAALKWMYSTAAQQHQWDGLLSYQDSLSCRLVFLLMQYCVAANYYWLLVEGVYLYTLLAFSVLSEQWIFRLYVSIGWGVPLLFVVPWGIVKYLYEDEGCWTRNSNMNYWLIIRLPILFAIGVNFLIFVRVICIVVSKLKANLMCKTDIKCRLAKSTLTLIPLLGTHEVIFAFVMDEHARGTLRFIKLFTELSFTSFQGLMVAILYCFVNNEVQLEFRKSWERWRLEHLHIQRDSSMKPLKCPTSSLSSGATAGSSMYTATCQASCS

As for `CCCCCCCCCCCCCCCC(=O)NCCCC[C@H](NC(=O)[C@H](CO)NC(=O)[C@@H]1CCCN1C(=O)[C@@H]1CCCN1C(=O)[C@@H]1CCCN1C(=O)[C@H](C)NC(=O)CNC(=O)[C@H](CO)NC(=O)[C@H](CO)NC(=O)[C@@H]1CCCN1C(=O)CNC(=O)CNC(=O)[C@H](CCCCN)NC(=O)[C@@H](NC(=O)[C@H](CC(C)C)NC(=O)[C@H](Cc1c[nH]c2ccccc12)NC(=O)[C@H](C)NC(=O)[C@@H](NC(=O)[C@H](Cc1ccccc1)NC(=O)[C@H](CCC(=O)O)NC(=O)[C@H](CCCNC(=N)N)NC(=O)C(C)(C)NC(=O)[C@H](C)NC(=O)[C@H](CCC(N)=O)NC(=O)[C@H](CCC(=O)O)NC(=O)[C@H](CCC(=O)O)NC(=O)[C@H](CC(C)C)NC(=O)[C@H](Cc1ccc(O)cc1)NC(=O)[C@H](CO)NC(=O)[C@H](CO)NC(=O)[C@@H](NC(=O)[C@@H](N)CC(=O)O)C(C)C)[C@@H](C)CC)C(C)C)C(N)=O` [compound 45] (H-DVSSYLEEQA[Aib]REFIAWLVKGGPSSGAPPPSK(Palmitoyl)-NH2; N-terminus assumed), the solubility was determined as 11.1 mg/mL (≈ 3.06 mM) in the series “Solubility in buffer” (setting [1]) and 0.4 mg/mL (≈ 0.11 mM) in “Solubility in buffer” (setting [2]). In addition, the pIC50 at GLP-1R (setting [3]) was 8.10.

Take `CCCCCCCCCCCCCCCC(=O)NCCCC[C@H](NC(=O)[C@H](CO)NC(=O)[C@@H]1CCCN1C(=O)[C@@H]1CCCN1C(=O)[C@@H]1CCCN1C(=O)[C@H](C)NC(=O)CNC(=O)[C@H](CO)NC(=O)[C@H](CO)NC(=O)[C@@H]1CCCN1C(=O)CNC(=O)CNC(=O)[C@H](CCCCN)NC(=O)[C@@H](NC(=O)[C@H](CC(C)C)NC(=O)[C@H](Cc1c[nH]c2ccccc12)NC(=O)[C@H](C)NC(=O)[C@@H](NC(=O)[C@H](Cc1ccccc1)NC(=O)[C@H](CCC(=O)O)NC(=O)[C@H](CCCNC(=N)N)NC(=O)[C@@H](NC(=O)C(C)(C)NC(=O)[C@H](CCC(N)=O)NC(=O)[C@H](CCC(=O)O)NC(=O)[C@H](CCC(=O)O)NC(=O)[C@H](CC(C)C)NC(=O)[C@H](Cc1ccc(O)cc1)NC(=O)[C@H](CO)NC(=O)[C@H](CO)NC(=O)[C@@H](NC(=O)[C@@H](N)CC(=O)O)C(C)C)C(C)C)[C@@H](C)CC)C(C)C)C(N)=O` [compound 46] (H-DVSSYLEEQ[Aib]VREFIAWLVKGGPSSGAPPPSK(Palmitoyl)-NH2; N-terminus assumed): the solubility is 17.5 mg/mL (≈ 4.79 mM) in the series “Solubility in buffer” (setting [1]) and 0.7 mg/mL (≈ 0.192 mM) in “Solubility in buffer” (setting [2]). Moreover, at GLP-1R (setting [3]), the pIC50 is 8.15.

With `CCCCCCCCCCCCCCCC(=O)NCCCC[C@H](NC(=O)[C@H](CO)NC(=O)[C@@H]1CCCN1C(=O)[C@@H]1CCCN1C(=O)[C@@H]1CCCN1C(=O)[C@H](C)NC(=O)CNC(=O)[C@H](CO)NC(=O)[C@H](CO)NC(=O)[C@@H]1CCCN1C(=O)CNC(=O)CNC(=O)[C@H](CCCCN)NC(=O)[C@@H](NC(=O)[C@H](CC(C)C)NC(=O)[C@H](Cc1c[nH]c2ccccc12)NC(=O)[C@H](C)NC(=O)[C@@H](NC(=O)[C@H](Cc1ccccc1)NC(=O)[C@H](CCC(=O)O)NC(=O)[C@H](CCCNC(=N)N)NC(=O)[C@@H](NC(=O)[C@H](C)NC(=O)[C@H](CCC(N)=O)NC(=O)[C@H](CCC(=O)O)NC(=O)[C@@H](CCC(=O)O)NC(=O)[C@H](CC(C)C)NC(=O)[C@H](Cc1ccc(O)cc1)NC(=O)[C@H](CO)NC(=O)[C@H](CO)NC(=O)[C@@H](NC(=O)[C@@H](N)CC(=O)O)C(C)C)C(C)C)[C@@H](C)CC)C(C)C)C(N)=O` [compound 49] (H-DVSSYL[dE]EQAVREFIAWLVKGGPSSGAPPPSK(Palmitoyl)-NH2; N-terminus assumed), in “Solubility in buffer” (setting [4]), the solubility was greater than 20 mg/mL. Also, the pIC50 on GLP-1R (setting [5]) is 7.64.

In the case of `CCCCCCCCCCCCCCCC(=O)NCCCC[C@H](NC(=O)[C@H](CO)NC(=O)[C@@H]1CCCN1C(=O)[C@@H]1CCCN1C(=O)[C@@H]1CCCN1C(=O)[C@H](C)NC(=O)CNC(=O)[C@H](CO)NC(=O)[C@H](CO)NC(=O)[C@@H]1CCCN1C(=O)CNC(=O)CNC(=O)[C@H](CCCCN)NC(=O)[C@@H](NC(=O)[C@H](CC(C)C)NC(=O)[C@H](Cc1c[nH]c2ccccc12)NC(=O)[C@H](C)NC(=O)[C@H](NC(=O)[C@H](Cc1ccccc1)NC(=O)[C@H](CCC(=O)O)NC(=O)[C@H](CCCNC(=N)N)NC(=O)[C@@H](NC(=O)[C@H](C)NC(=O)[C@H](CCC(N)=O)NC(=O)[C@H](CCC(=O)O)NC(=O)[C@H](CCC(=O)O)NC(=O)[C@H](CC(C)C)NC(=O)[C@H](Cc1ccc(O)cc1)NC(=O)[C@H](CO)NC(=O)[C@H](CO)NC(=O)[C@@H](NC(=O)[C@@H](N)CC(=O)O)C(C)C)C(C)C)[C@H](C)CC)C(C)C)C(N)=O` [compound 51] (H-DVSSYLEEQAVREF[dI]AWLVKGGPSSGAPPPSK(Palmitoyl)-NH2; N-terminus assumed), in the series “Solubility in buffer” (setting [4]), the solubility is greater than 20 mg/mL. For the same compound, the pIC50 on GLP-1R (setting [5]) was 7.51.

In “Solubility in buffer” (setting [6]), `CCCCCCCCCCCCCCCC(=O)N[C@@H](CCC(=O)NCCOCCOCC(=O)NCCCC[C@H](NC(=O)[C@H](CO)NC(=O)[C@@H]1CCCN1C(=O)[C@@H]1CCCN1C(=O)[C@@H]1CCCN1C(=O)[C@H](C)NC(=O)CNC(=O)[C@H](CO)NC(=O)[C@H](CO)NC(=O)[C@@H]1CCCN1C(=O)CNC(=O)CNC(=O)[C@H](CCCCN)NC(=O)[C@@H](NC(=O)[C@H](CC(C)C)NC(=O)[C@H](Cc1c[nH]c2ccccc12)NC(=O)[C@H](C)NC(=O)[C@@H](NC(=O)[C@H](Cc1ccccc1)NC(=O)[C@H](CCC(=O)O)NC(=O)[C@H](CCCNC(=N)N)NC(=O)[C@@H](NC(=O)[C@H](C)NC(=O)[C@H](CCC(N)=O)NC(=O)[C@H](CCC(=O)O)NC(=O)[C@H](CCC(=O)O)NC(=O)[C@H](CC(C)C)NC(=O)[C@H](Cc1ccc(O)cc1)NC(=O)[C@H](CO)NC(=O)[C@H](CO)NC(=O)[C@@H](NC(=O)[C@@H](N)CC(=O)O)C(C)C)C(C)C)[C@@H](C)CC)C(C)C)C(N)=O)C(=O)O` [compound 56] (H-DVSSYLEEQAVREFIAWLVKGGPSSGAPPPSK([AEEA-γGlu-Palmitoyl])-NH2; N-terminus assumed) came in with a solubility greater than 20 mg/mL.

In “Solubility in buffer” (setting [6]), `CCCCCCCCCCCCCCCC(=O)N[C@@H](CCC(=O)N[C@@H](CCC(=O)NCCOCCOCC(=O)NCCOCCOCC(=O)NCCCC[C@H](NC(=O)[C@H](CO)NC(=O)[C@@H]1CCCN1C(=O)[C@@H]1CCCN1C(=O)[C@@H]1CCCN1C(=O)[C@H](C)NC(=O)CNC(=O)[C@H](CO)NC(=O)[C@H](CO)NC(=O)[C@@H]1CCCN1C(=O)CNC(=O)CNC(=O)[C@H](CCCCN)NC(=O)[C@@H](NC(=O)[C@H](CC(C)C)NC(=O)[C@H](Cc1c[nH]c2ccccc12)NC(=O)[C@H](C)NC(=O)[C@@H](NC(=O)[C@H](Cc1ccccc1)NC(=O)[C@H](CCC(=O)O)NC(=O)[C@H](CCCNC(=N)N)NC(=O)[C@@H](NC(=O)[C@H](C)NC(=O)[C@H](CCC(N)=O)NC(=O)[C@H](CCC(=O)O)NC(=O)[C@H](CCC(=O)O)NC(=O)[C@H](CC(C)C)NC(=O)[C@H](Cc1ccc(O)cc1)NC(=O)[C@H](CO)NC(=O)[C@H](CO)NC(=O)[C@@H](NC(=O)[C@@H](N)CC(=O)O)C(C)C)C(C)C)[C@@H](C)CC)C(C)C)C(N)=O)C(=O)O)C(=O)O` [compound 58] (H-DVSSYLEEQAVREFIAWLVKGGPSSGAPPPSK([AEEA-AEEA-γGlu-γGlu-Palmitoyl])-NH2; N-terminus assumed) registered a solubility greater than 25 mg/mL.

Regarding `CCCCCCCCCCCCCCCC(=O)NCCCC[C@H](NC(=O)[C@H](CO)NC(=O)[C@@H]1CCCN1C(=O)[C@@H]1CCCN1C(=O)[C@@H]1CCCN1C(=O)[C@H](C)NC(=O)CNC(=O)[C@H](CO)NC(=O)[C@H](CO)NC(=O)[C@@H]1CCCN1C(=O)CNC(=O)CNC(=O)[C@H](CCCCN)NC(=O)[C@@H](NC(=O)[C@H](CC(C)C)NC(=O)[C@H](Cc1c[nH]c2ccccc12)NC(=O)C(C)(C)NC(=O)[C@@H](NC(=O)[C@H](Cc1ccccc1)NC(=O)[C@H](CCC(=O)O)NC(=O)[C@H](CCCNC(=N)N)NC(=O)[C@@H](NC(=O)[C@H](C)NC(=O)[C@H](CCC(N)=O)NC(=O)[C@H](CCC(=O)O)NC(=O)[C@H](CCC(=O)O)NC(=O)[C@H](CC(C)C)NC(=O)[C@H](Cc1ccc(O)cc1)NC(=O)[C@H](CO)NC(=O)[C@H](CO)NC(=O)[C@@H](NC(=O)[C@@H](N)CC(=O)O)C(C)C)C(C)C)[C@@H](C)CC)C(C)C)C(N)=O` [compound 83] (H-DVSSYLEEQAVREFI[Aib]WLVKGGPSSGAPPPSK(Palmitoyl)-NH2), the solubility was found to be 12.6 mg/mL (≈ 3.45 mM) in the series “Solubility in buffer” (setting [1]) and 0.3 mg/mL (≈ 0.0821 mM) in “Solubility in buffer” (PBS, pH 7.7).
